# Data published in patent US4596710A, “Gallium chloride as a new anti-cancerous drug” (priority 1981, dated 1986).
# How the values were obtained:
# [1] = Clinical and biological tolerance in patients
# Protocol: Mrs. […] Post-operative chemotherapy (5-fluoro-uracil and endoxan) was then effected up to April 1979. At that time, […] underwent a second operation with excision of the remaining cervix and omentectomy. […] Cobalt therapy was then carried out from Nov. 5th, 1979 to Feb. 5th, 1980 on the abdomen, pelvis and diaphragm cupolas, then further chemotherapy (hexamethylmelamine) from August to October 1980. […] Treatment by gallium chloride started on Nov. 1 st, 1980 at the posology of 300 mg per day per os in three doses of 100 mg. […] An echotomograph on Dec. […] A third echotomograph was made on Jan. […] On Mar.
# The treatment by gallium chloride was started on May 15th, 1981, at the posology of 600 mg/24 hours up to Sept. 20th, 1981, in association with a heparinotherapy at mini-doses. This heparinotherapy had been prescribed to prevent a phlebitis or pulmonary embolism following the surgical operation of April 1981 and had not been interrupted in order not to provoke the phenomenon of tumoral flare-up. [Calciparin (heparin calcium salt) 0.2 ml, 3 times per day by sub-cutaneous route]. […] On Sept. […] This was the case. . . […] 29th, 1981. […] Up to Nov. […] It was from Sept.
# HOT... […] , was operated on May 14th, 1981 for an adenocarcinoma of the colon. […] An almost total colectomy was carried out, leaving 20 cm of sigmoid and a resection of the small bowel over a length of 15 cm. […] On Oct. […] An exploratory laparotomy was made on Nov. […] 7th, 1982.
# (§1) Gallium chloride therapy was started on Sept.
# [2] = test system: left axillary lymphadenopathy; assay: 2nd patient: gallium chloride treatment, tumour response
# Excerpt: A complete check-up to seek primary localisation was undertaken. In view of the negative nature of this check-up, the diagnosis of cutaneous primary tumour, developed at the expense of the cutaneous appendants (eccrine tumour) was retained.
# globular Mg = assay: Globular Mg rates in patients in the course of treatment; format: in vivo, human
# Excerpt: The importance of checking the globular Mg rates was furthermore clearly illustrated by the following two observations (3rd and 4th patients).
# On Sept. […] This was the case. . . […] 29th, 1981. This posology was tolerated up to Nov. […] Up to Nov. […] It was from Sept.
# (§2) A person . . . […] On Oct. […] An exploratory laparotomy was made on Nov. […] 7th, 1982.
# FIGS. 1, 2 and 3 show the curves of the globular Mg (1) and plasmatic Mg (2) rates as a function of time in the course of treatment by gallium chloride (the starting point of the curves corresponding to the first administration) of the three patients. A person […] (1st patient, […] (3rd Patient) and a person […] (4th patient, respectively.
# To follow the globular Mg rates, the dosages must be frequent and repeated, about once a week. In fact, there are cyclic variations of the globular Mg rates with a curve of sinusoidal appearance, and the period of these cycles, like the importance of the globular Mg rates, are a function of the evolutive potential of the malignant tumour (P. COLLERY et col. "Role of Magnesium in the Development of Cancer", Trace Substances in Environmental Health, XII, 1978--A Symposium--University of Missouri--Columbia). The appearance of this curve is modified, as indicated above, by the anti-tumoral therapy by gallium chloride.
# [3] = test system: adenocarcinoma of the colon; assay: 4th patient: gallium chloride treatment, tumour response; format: in vivo, human
# Excerpt: as §2
# adenocarcinoma = assay: Long-term treatment of two bitches with evolutive third recurrence of mammary tumour; format: in vivo, female dogs
# [4] = test system: epidermoid carcinoma of the oesophagus; assay: 5th patient: gallium chloride treatment, tumour response; format: in vivo, human
# Excerpt: A person . . . Michel: the diagnosis of differenciated, mature and infiltrating epidermoid carcinoma of the oesophagus was made on Sept. 3rd, 1981. This was a voluminous tumour, extending from 23 to 32 cm, from the dental arches (according to the data from the endoscopy) with an invasion of the rear face of the origin of the left principal bronchus and the carina tracheae. In the bronchoscopy of Sept. 8th, 1981, there was a necrotic tumoral bud obstructing the light of the bronchus by two-thirds.
# as §1
# A further bronchoscopy was made on Oct. […] The existence of a considerable sub-jacent bronchial stasis and of daily dispnoeic attacks in the evening led to treatment of this bronchial tumour by laser on Oct. 20th, 1981. […] Feeding by the oral route was stopped, as well as the gallium chloride treatment and, after parenteral feeding, a celestine prosthesis was positioned by endoscopic route on Nov. 3rd, 1981. The sequels of the positioning of the prosthesis was marked by the appearance of an infectious bronchial syndrome which led to death of the patient on Nov. 18th, 1981.
# [5] = 800 mg/24 hours oral, one month
# [6] = therapy continued up to Nov. 10th, 1981
smiles,measurement,setting,value
[Cl][Ga]([Cl])[Cl] [gallium chloride],"clinical and biological tolerance, 1st patient","[1]; 300 mg per day per os, two months uninterrupted",good
same,"renal, hepatic, blood cells count disturbance, 5th patient",[1]; [5],no renal nor hepatic disturbance nor disturbances in the blood cells count
same,"tolerance, 5th patient",[1]; [5],"tolerated perfectly well, both from the clinical and biological point of view"
same,"anorexia leading to stop of therapy, 3rd patient","[1]; 800 mg/24 hours, from Nov. 27th, 1981",virtually total anorexia
same,"tolerance, 4th patient","[1]; 500 then 300 mg/24 hours oral, without renal disorders",perfect clinically and biologically (without renal disorders in particular)
same,"blood cells count, hepatic balance, calcemia, phosphatemia, 2nd patient","[1]; Jan. 6th, 1982",normal
same,"general state, 2nd patient","[1]; Jan. 6th, 1982","good, with a normal appetite"
same,"inflammatory balance (haptoglobin), 2nd patient","[1]; Jan. 6th, 1982",normal
same,"creatinine, 2nd patient","[1]; Jan. 6th, 1982, normal",88.50 µmol/L
same,"tolerance, 2nd patient","[1]; Jan. 6th, 1982, oral since May 20th, 1981","perfectly well tolerated, without any digestive disorders or neurological, cardiac or cutaneous effects"
same,"weight, 2nd patient","[1]; Jan. 6th, 1982, unchanged since beginning of treatment",71 kg
same,"tolerance of 800 mg/24 hours, 3rd patient","[1]; Sept. 29th to Nov. 27th, 1981","tolerated up to Nov. 27th, 1981"
same,"digestive intolerance leading to interruption, 1st patient","[1]; after Mar. 20th, 1981",had to be interrupted due to digestive intolerance
same,"renal function and blood cells count, 3rd patient","[1]; up to Nov. 27th, 1981",normal
same,"weight, 3rd patient","[1]; up to Sept. 20th, 1981, 600 mg/24 hours with Calciparin, stable",70 kg
same,"hardness of lymphadenopathy, July 23rd, 1981",[2]; 300 mg per day oral,much harder
same,"lymphadenopathy, Jan. 6th, 1982","[2]; 600 mg and 300 mg alternately, oral",no longer perceptible
same,"diameter of lymphadenopathy, Dec. 8th, 1981",[2]; 600 mg per day oral,1 cm in diameter
same,"dorsal osseous pains, 2nd patient","[2]; Jan. 6th, 1982","dorsal osseous pains persisted, but of mechanical type, completely calmed by rest"
same,regression of the lymphadenopathy,"[2]; oral from May 20th, 1981, from end of July 1981",progressive regression of the lymphadenopathy
same,"globular magnesium rates, 4th patient, Oct. 15th, 1981",globular Mg; 300 mg/24 hours oral,3.00 mmol/L
same,"globular magnesium rates, 3rd patient, Oct. 6th, 1981","globular Mg; 800 mg/24 hours, after heparinotherapy stopped",2.96 mmol/L
same,"globular magnesium rates, curves of FIGS. 1-3","globular Mg; 1st, 3rd and 4th patients, when treatment is efficacious",decrease
same,"globular Mg rates, first 4 months, 4th patient",globular Mg; 500 then 300 mg/24 hours oral,normal
same,"correlation between clinical state, carcinoembryonic antigen and globular magnesium rates, 4th patient","globular Mg; human, in vivo",could be emphasized
same,"prevention of recurrence, 4th patient","[3]; 300 ng per day (so in the source), up to Nov. 10th, 1981",insufficient
same,"carcinoembryonic antigen rates, 4th patient, Oct. 15th, 1981",[3]; 300 mg/24 hours oral,9 ng/mL
same,"carcinoembryonic antigen rates, first 4 months, 4th patient",[3]; 500 then 300 mg/24 hours oral,normal
same,"general state, first 4 months, 4th patient",[3]; 500 then 300 mg/24 hours oral,very satisfactory
same,"exploratory laparotomy, 4th patient","[3]; Nov. 12th, 1981",an indissectable ileomesenteric block and hepatic granulations distributed like grains of rice over the whole of the two lobes of the liver
same,"carcinoembryonic antigen rates, 4th patient, Nov. 26th, 1981",[3]; [6],97 ng/mL
same,"death, 4th patient",[3]; [6],"death occured on Jan. 7th, 1982"
same,"size of the tumour, second bitch (BEL), 4.1.1981","adenocarcinoma; 2.5 mg/kg per os from 27.2.1981, 1.2 cm on 2.27.1981",1.8 cm in diameter
same,"size of the tumour, second bitch (BEL), 4.30.1981",adenocarcinoma; 2.5 mg/kg per os to 30.4.1981,2.3 cm in diameter
same,"tumour evolution after 10.14.1981, first bitch (OUD)","adenocarcinoma; 10 mg/kg per os, up to Dec. 28th, 1981",tumoral stabilisation
same,"pulmonary radiograph, second bitch (BEL)",adenocarcinoma; 5.1.1982,normal
same,"death, first bitch (OUD)","adenocarcinoma; Dec. 28th, 1981, good general state during preceding days",suddenly died (good general state during the preceding days) of a myocardial infarction with acute oedema of the lung and overall heart failure
same,"autopsy, first bitch (OUD)","adenocarcinoma; after death Dec. 28th, 1981",no hepatic nor pulmonary metastases a small nodule of 1 cm in the spleen
same,"tumour growth after 9.1.1981, second bitch (BEL)",adenocarcinoma; per os,the growth clearly slowed down with an obvious change in the consistency of the tumour
same,"tumour growth since Nov. 3rd, 1981, second bitch (BEL)",adenocarcinoma; up to surgical excision,"virtually not enlarged since Nov. 3rd, 1981"
same,"excised piece, second bitch (BEL)",adenocarcinoma; upon opening of excised tumour,considerable necrosis occupying virtually all the tumour
same,"bronchial obstruction, bronchoscopy Oct. 13th, 1981, 5th patient","[4]; 800 mg/24 hours oral from Sept. 21st, 1981",the same bronchial obstruction
same,"death, 5th patient","[4]; infectious bronchial syndrome after prosthesis, treatment already stopped","death of the patient on Nov. 18th, 1981"
